The values below come from US9271967B2, “1,2,4-triazolo[4,3-a]pyridine derivatives and their use as positive allosteric modulators of mGluR2 receptors” (Janssen Pharmaceuticals, Inc., priority 2010, dated 2016).

The target in one data set is T1, human mGluR2 receptor (Homo sapiens, UniProt Q14416).
T1 construct: expressed in transfected cells; host or cells: CHO cells
Description: [35S]GTPγS binding assay (PAM assay). Format: biochemical. Particulars: in presence of glutamate at EC20; for GTPγS-hmGluR2 PAM Emax / Emax: maximal % effect relative to the control glutamate response; for EC50: membranes of CHO cells transfected with human mGluR2, -log EC50 in M, read-out: GTPγS-hmGluR2 PAM pEC50 (converted); for Emax: read-out: GTPγS-hmGluR2 PAM Emax. How it is done: The [^35S]GTPγS binding assay is a functional membrane-based assay used to study G-protein coupled receptor (GPCR) function whereby incorporation of a non-hydrolysable form of GTP, [^35S]GTPγS (guanosine 5′-triphosphate, labelled with […] ^35S), is measured. The G-protein α subunit catalyzes the exchange of guanosine 5′-diphosphate (GDP) by guanosine triphosphate (GTP) and on activation of the GPCR by an agonist, [^35S]GTPγS, becomes incorporated and cannot be cleaved to continue the exchange cycle (Harper (1998) Current Protocols in Pharmacology 2.6.1-10, John Wiley & Sons, Inc.). […] Here we describe the use of the [^35S]GTPγS binding assay using membranes from cells transfected with the human mGluR2 receptor and adapted from Schaffhauser et al. ((2003) Molecular Pharmacology 4:798-810) for the detection of the positive allosteric modulation (PAM) properties of the compounds of this invention.
CHO-cells were cultured to pre-confluence and stimulated with 5 mM butyrate for 24 h. Cells were then collected by scraping in PBS and cell suspension was centrifuged (10 min at 4000 RPM in benchtop centrifuge). Supernatant was discarded and pellet gently resuspended in 50 mM Tris-HCl, pH 7.4 by mixing with a vortex and pipetting up and down. The suspension was centrifuged at 16,000 RPM (Sorvall RC-5C plus rotor SS-34) for 10 minutes and the supernatant discarded. The pellet was homogenized in 5 mM Tris-HCl, pH 7.4 using an ultra-turrax homogenizer and centrifuged again (18,000 RPM, 20 min, 4° C.). The final pellet was resuspended in 50 mM Tris-HCl, pH 7.4 and stored at −80° C. in appropriate aliquots before use. Protein concentration was determined by the Bradford method (Bio-Rad, USA) with bovine serum albumin as standard.
Measurement of mGluR2 positive allosteric modulatory activity of test compounds was performed as follows. Test compounds and glutamate were diluted in assay buffer containing 10 mM HEPES acid, 10 mM HEPES salt, pH 7.4, 100 mM NaCl, 3 mM MgCl2 and 10 μM GDP. Human mGlu2 receptor-containing membranes were thawed on ice and diluted in assay buffer supplemented with 14 μg/ml saponin. Membranes were pre-incubated with compound alone or together with a predefined (˜EC20) concentration of glutamate (PAM assay) for 30 min at 30° C. After addition of [^35S]GTPγS (f.c. 0.1 nM), assay mixtures were shaken briefly and further incubated to allow [^35S]GTPγS incorporation on activation (30 minutes, 30° C.). Final assay mixtures contained 7 μg of membrane protein in 10 mM HEPES acid, 10 mM HEPES salt, pH 7.4, 100 mM NaCl, 3 mM MgCl2, 10 μM GDP and 10 μg/ml saponin. Total reaction volume was 200 μl. Reactions were terminated by rapid filtration through Unifilter-96 GF/B plates (Perkin Elmer, Mass., USA) using a 96-well filtermate universal harvester. Filters were washed 6 times with ice-cold 10 mM NaH2PO4/10 mM Na2HPO4, pH 7.4. Filters were then air-dried, and 40 μl of liquid scintillation cocktail (Microscint-O) was added to each well. Membrane-bound radioactivity was counted in a Microplate Scintillation and Luminescence Counter from Perkin Elmer.
The concentration-response curves of representative compounds of the present invention—obtained in the presence of EC20 of mGluR2 agonist glutamate to determine positive allosteric modulation (PAM)—were generated using the Lexis software interface (developed at J&J). Data were calculated as % of the control glutamate response, defined as the maximal response that is generated upon addition of glutamate alone. Sigmoid concentration-response curves plotting these percentages versus the log concentration of the test compound were analyzed using non-linear regression analysis. The concentration producing half-maximal effect is then calculated as EC50. The pEC50 values below were calculated as the −log EC50, when the EC50 is expressed in M. Emax is defined as relative maximal effect (i.e. maximal % effect relative to the control glutamate response).

T1 sequence (Q14416 19-872): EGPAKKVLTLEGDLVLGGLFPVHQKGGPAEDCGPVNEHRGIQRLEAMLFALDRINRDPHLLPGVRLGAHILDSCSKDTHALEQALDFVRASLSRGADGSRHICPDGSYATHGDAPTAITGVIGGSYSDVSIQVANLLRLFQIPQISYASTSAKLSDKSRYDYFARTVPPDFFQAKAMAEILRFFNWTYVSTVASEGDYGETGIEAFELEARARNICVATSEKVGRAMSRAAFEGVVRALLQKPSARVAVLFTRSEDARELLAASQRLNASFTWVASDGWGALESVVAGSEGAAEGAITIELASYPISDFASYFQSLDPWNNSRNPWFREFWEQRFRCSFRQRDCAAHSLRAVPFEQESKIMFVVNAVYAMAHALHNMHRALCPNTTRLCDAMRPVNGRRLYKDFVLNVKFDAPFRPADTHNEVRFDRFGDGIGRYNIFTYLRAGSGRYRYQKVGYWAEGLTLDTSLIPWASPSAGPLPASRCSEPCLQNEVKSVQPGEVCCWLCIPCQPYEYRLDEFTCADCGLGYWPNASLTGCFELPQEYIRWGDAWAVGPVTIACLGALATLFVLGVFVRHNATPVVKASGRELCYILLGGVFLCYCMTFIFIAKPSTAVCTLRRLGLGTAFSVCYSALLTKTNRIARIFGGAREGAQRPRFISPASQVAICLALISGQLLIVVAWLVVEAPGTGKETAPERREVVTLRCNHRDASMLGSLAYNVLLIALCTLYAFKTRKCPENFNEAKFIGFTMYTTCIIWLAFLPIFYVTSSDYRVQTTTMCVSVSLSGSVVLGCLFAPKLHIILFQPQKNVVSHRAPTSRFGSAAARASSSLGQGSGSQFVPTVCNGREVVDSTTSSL

Consider `FC(F)(F)c1c(CNC2CCOc3ccccc32)ccn2c(CC3CC3)nnc12` (single isomer, unassigned) [Co. no. 28a, (4*R)—N-{[3-(Cyclopropylmethyl)-8-(trifluoromethyl) [1,2,4]triazolo[4,3-a]pyridin-7-yl]methyl}-3,4-dihydro-2H-chromen-4-amine], for which the “GTPγS-hmGluR2 PAM Emax” value at human mGluR2 receptor (listed as 28a) amounted to 257%. The EC50 on human mGluR2 receptor is 794 nM.

As to `FC(F)(F)c1c(CNC2CCOc3ccccc32)ccn2c(CC3CC3)nnc12` (single isomer, unassigned) [Co. no. 28b, (4*S)—N-{[3-(Cyclopropylmethyl)-8-(trifluoromethyl) [1,2,4]triazolo[4,3-a]pyridin-7-yl]methyl}-3,4-dihydro-2H-chromen-4-amine], on human mGluR2 receptor (listed as 28b), the “GTPγS-hmGluR2 PAM Emax” value was 285%. Moreover, on human mGluR2 receptor, the EC50 is 575 nM.

Regarding `Fc1ccc(N2CCC(NCc3ccn4c(CC5CC5)nnc4c3C(F)(F)F)CC2)c(F)c1` [Co. no. 2, 3-(Cyclopropylmethyl)-N-[1-(2,4-difluorophenyl)-4-piperidinyl]-8-(trifluoromethyl)-1,2,4-triazolo[4,3-a]pyridine-7-methanamine], at human mGluR2 receptor, the Emax – broadly, the maximal effect, on the per cent scale that the assay sets – stood at 321% and the EC50 is 617 nM.

As for `FC(F)(F)c1c(CN[C@H]2CC[C@H](c3ccccc3)CC2)ccn2c(CC3CC3)nnc12` [Co. no. 3, 3-(Cyclopropylmethyl)-N-(trans-4-phenylcyclohexyl)-8-(trifluoromethyl)-1,2,4-triazolo[4,3-a]pyridine-7-methanamine], the melting point (as a rule, the temperature of the solid-liquid transition) was found to be 157.4 °C. Moreover, at human mGluR2 receptor, the Emax was determined as 235% and the EC50 was 234 nM.

Regarding `CCc1nnc2c(C(F)(F)F)c(CN[C@H]3CC[C@H](c4ccccc4)CC3)ccn12` [Co. no. 4, 3-Ethyl-N-(trans-4-phenylcyclohexyl)-8-(trifluoromethyl)-1,2,4-triazolo[4,3-a]-pyridine-7-methanamine], on human mGluR2 receptor, the Emax came out at 197% and the EC50 is 1200 nM.

As for `FC(F)(F)c1c(CNC2Cc3ccccc3C2)ccn2c(CC3CC3)nnc12` [Co. no. 6, 3-(Cyclopropylmethyl)-N-(2,3-dihydro-1H-inden-2-yl)-8-(trifluoromethyl)-1,2,4-triazolo[4,3-a]pyridine-7-methanamine], on human mGluR2 receptor, the maximal response (Emax) was found to be 227% and the EC50 is 794 nM.

As to `FC(F)(F)c1c(CN[C@H]2CC[C@@H](c3ccccc3)CC2)ccn2c(CC3CC3)nnc12` [Co. no. 7, 3-(Cyclopropylmethyl)-N-(cis-4-phenylcyclohexyl)-8-(trifluoromethyl)-1,2,4-triazolo-[4,3-a]pyridine-7-methanamine], at human mGluR2 receptor, the Emax was determined as 263% and the EC50 was 42.7 nM.

Take `CCc1nnc2c(C(F)(F)F)c(CN[C@H]3CC[C@@H](c4ccccc4)CC3)ccn12` [Co. no. 8, 3-Ethyl-N-(cis-4-phenylcyclohexyl)-8-(trifluoromethyl)-1,2,4-triazolo[4,3-a]pyridine-7-methanamine]: at human mGluR2 receptor, the Emax turned out to be 228% and the EC50 was 324 nM.

On to `CCc1nnc2c(C(F)(F)F)c(CN[C@H]3CC[C@@H](c4ccc(F)cc4F)CC3)ccn12` [Co. no. 9, N-[Cis-4-(2,4-difluorophenyl)cyclohexyl]-3-ethyl-8-(trifluoromethyl)-1,2,4-triazolo[4,3-a]pyridine-7-methanamine], for which, on human mGluR2 receptor, the Emax was 209% and the EC50 was 209 nM.

Regarding `CCOCc1nnc2c(C(F)(F)F)c(CN[C@H]3CC[C@@H](c4ccccc4)CC3)ccn12` [Co. no. 10, 3-(Ethoxymethyl)-N-(cis-4-phenylcyclohexyl)-8-(trifluoromethyl)-1,2,4-triazolo-[4,3-a]pyridine-7-methanamine], on human mGluR2 receptor, the Emax is 242% and the EC50 is 170 nM.

Take `CCOCc1nnc2c(C(F)(F)F)c(CN[C@H]3CC[C@H](c4ccccc4)CC3)ccn12` [Co. no. 11, 3-(Ethoxymethyl)-N-(trans-4-phenylcyclohexyl)-8-(trifluoromethyl)-1,2,4-triazolo-[4,3-a]pyridine-7-methanamine]: the Emax on human mGluR2 receptor is 278%.

Consider `Clc1c(CN[C@H]2CC[C@@H](c3ccccc3)CC2)ccn2c(CC3CC3)nnc12` [Co. no. 12, 8-Chloro-3-(cyclopropylmethyl)-N-(cis-4-phenylcyclohexyl)-1,2,4-triazolo-[4,3-a]pyridine-7-methanamine], for which, on human mGluR2 receptor, the Emax worked out at 257% and the EC50 was 589 nM.

As to `Clc1c(CN[C@H]2CC[C@H](c3ccccc3)CC2)ccn2c(CC3CC3)nnc12` [Co. no. 13, 8-Chloro-3-(cyclopropylmethyl)-N-(trans-4-phenylcyclohexyl)-1,2,4-triazolo-[4,3-a]pyridine-7-methanamine], on human mGluR2 receptor, the Emax turned out to be 243%.

As for `FC(F)(F)c1c(CNC2CC2c2ccccc2)ccn2c(CC3CC3)nnc12` (stereo not drawn) [Co. no. 27, Trans-N-{[3-(Cyclopropylmethyl)-8-(trifluoromethyl)[1,2,4]triazolo[4,3-a]pyridin-7-yl]methyl}-2-phenylcyclopropanamine], on human mGluR2 receptor, the Emax worked out at 267% and the EC50 is 871 nM.

As for `FC(F)(F)c1c(CN[C@H]2CCO[C@H](c3ccccc3)C2)ccn2c(CC3CC3)nnc12` [Co. no. 29, (2S,4S)—N-{[3-(Cyclopropylmethyl)-8-(trifluoromethyl) [1,2,4]triazolo[4,3-a]pyridin-7-yl]methyl}-2-phenyltetrahydro-2H-pyran-4-amine], the melting point stood at 95.8 °C. Further, the Emax at human mGluR2 receptor was found to be 209%.

The molecule `FC(F)(F)c1c(CN[C@@H]2CCO[C@@H](c3ccccc3)C2)ccn2c(CC3CC3)nnc12` [Co. no. 30, (2R,4R)—N-{[3-(Cyclopropylmethyl)-8-(trifluoromethyl)[1,2,4]triazolo[4,3-a]pyridin-7-yl]methyl}-2-phenyltetrahydro-2H-pyran-4-amine] registered a melting point of 139.6 °C. On human mGluR2 receptor, the Emax came out at 239% and the EC50 was 1200 nM.

Turning to `FC(F)(F)c1c(CNC2COCC2c2ccccc2)ccn2c(CC3CC3)nnc12` (stereo not drawn) [Co. no. 31, Cis-N-{[3-(Cyclopropylmethyl)-8-(trifluoromethyl) [1,2,4]triazolo[4,3-a]pyridin-7-yl]methyl}-4-phenyltetrahydrofuran-3-amine], at human mGluR2 receptor, the Emax was 201%.
